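Values below derive from 48-hour exposures of cells grown in 96-well plates, with endpoints linearly interpolated between the two concentrations bracketing the appropriate inhibition level. The concentration for 50% growth inhibition is given as GI50.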 Calls of active or inactive are those of the source. Rule as the data show it: active = GI50 up to about 1.1 µM and inactive = higher.
How the values were obtained:
Test in all cases: inhibition of tumour cell growth, NCI panel, 48 h
DU-145 = system: DU-145
MCF7 = system: MCF7
SF-539 = system: SF-539
EKVX = system: EKVX
K562 = system: K562
UACC-62 = system: UACC-62
HL-60 = system: HL-60
NCI-H522 = system: NCI-H522
U-251 = system: U-251
SR = system: SR
HCT-116 = system: HCT-116
BT-549 = system: BT-549
HOP-62 = system: HOP-62
HCT-15 = system: HCT-15
SK-OV-3 = system: SK-OV-3
HCC 2998 = system: HCC 2998
UACC-257 = system: UACC-257
A498 = system: A498
Malme-3M = system: Malme-3M
Hs-578T = system: Hs-578T

| SMILES | GI50 (DU-145) | GI50 (MCF7) | GI50 (SF-539) | GI50 (EKVX) | GI50 (K562) | GI50 (UACC-62) | GI50 (HL-60) | GI50 (NCI-H522) | GI50 (U-251) | GI50 (SR) | GI50 (HCT-116) | GI50 (BT-549) | GI50 (HOP-62) | GI50 (HCT-15) | GI50 (SK-OV-3) | GI50 (HCC 2998) | GI50 (UACC-257) | GI50 (A498) | GI50 (Malme-3M) | GI50 (Hs-578T) |
| --- | --- | --- | --- | --- | --- | --- | --- | --- | --- | --- | --- | --- | --- | --- | --- | --- | --- | --- | --- | --- |
| c1ccc2sc(C3(N4CCCC4)CCCCCC3)cc2c1 | 22.4 µM (inactive) | 18.4 µM (inactive) | 19.6 µM (inactive) | 17.3 µM (inactive) | 17.2 µM (inactive) | 16.2 µM (inactive) | 17.4 µM (inactive) | 18.7 µM (inactive) | 17.2 µM (inactive) | 18.8 µM (inactive) | 12.5 µM (inactive) | 21.4 µM (inactive) | 18.5 µM (inactive) | 17.5 µM | 16.8 µM (inactive) | 13.6 µM (inactive) | 16 µM (inactive) | 16.6 µM (inactive) |  |  |
| COc1cc(OCCN(C)C)c2[nH]c(C(=O)N3CC(CCl)c4c3cc(N)c3ccccc43)cc2c1 (stereo unspecified) | < 0.01 µM (active) | < 0.01 µM (active) | < 0.01 µM (active) | < 0.01 µM (active) |  | < 0.01 µM (active) |  | < 0.01 µM (active) | < 0.01 µM (active) |  | < 0.01 µM (active) | 0.0268 µM (active) | < 0.01 µM (active) | < 0.01 µM | 0.0148 µM (active) | < 0.01 µM (active) | < 0.01 µM (active) | < 0.01 µM (active) | < 0.01 µM (active) | < 0.01 µM (active) |
| c1ccc(C[n+]2ccc3c(c2)CCCC3)cc1 | > 100 µM (inactive) | 52.1 µM (inactive) | > 100 µM (inactive) | 10.6 µM (inactive) | 11.7 µM (inactive) | > 100 µM (inactive) | 29.5 µM (inactive) |  | 55.1 µM (inactive) | > 100 µM (inactive) | 93.1 µM (inactive) |  | > 100 µM (inactive) | > 100 µM | > 100 µM (inactive) | 22.9 µM (inactive) | 33.8 µM (inactive) |  | 21.4 µM (inactive) | 49.9 µM (inactive) |
| C[C@]12C(=O)C=CCC1=CC[C@@H]1[C@@H]2[C@H]2CC3(O)C(=O)O[C@@]4(C)[C@H]5C[C@@]6(C)[C@@H]7[C@@]2(O)[C@]1(OC[C@H]6C(=O)O5)O[C@]734 (stereo partly specified) | 58.2 µM (inactive) | 31.7 µM (inactive) | 17.7 µM (inactive) | 43.9 µM (inactive) | 38.2 µM (inactive) | 26.4 µM (inactive) | 17.5 µM (inactive) | 14.3 µM (inactive) | 34.6 µM (inactive) | 28.4 µM (inactive) | 31.8 µM (inactive) |  |  | 53.7 µM |  |  | 59.4 µM (inactive) | 54.6 µM (inactive) | 74.8 µM (inactive) | 51.1 µM (inactive) |
| CCOC(CNc1nn2c(C)nnc2s1)OCC | > 100 µM (inactive) | > 100 µM (inactive) | > 100 µM (inactive) | > 100 µM (inactive) | > 100 µM (inactive) | > 100 µM (inactive) | > 100 µM (inactive) | > 100 µM (inactive) | > 100 µM (inactive) | > 100 µM (inactive) | > 100 µM (inactive) |  | > 100 µM (inactive) | > 100 µM | > 100 µM (inactive) | > 100 µM (inactive) | > 100 µM (inactive) | > 100 µM (inactive) | > 100 µM (inactive) | > 100 µM (inactive) |
| COC1=CC(=O)c2c(O)c3c(c(O)c2C1=O)OC1(Oc2c(cc4cc(C)oc(=O)c4c2O)CC1O)C3O (stereo unspecified) | 33.8 µM (inactive) | 43.9 µM (inactive) | 44.5 µM (inactive) | 24.9 µM (inactive) | 42.8 µM (inactive) | 32.7 µM (inactive) | 33.3 µM (inactive) | 25.1 µM (inactive) | 39.9 µM (inactive) | > 100 µM (inactive) | 35.6 µM (inactive) |  | 35.2 µM (inactive) | 29 µM | 77.1 µM (inactive) | 28.9 µM (inactive) | 40.6 µM (inactive) | 47.9 µM (inactive) | 2.14 µM (inactive) | 91.8 µM (inactive) |
| CN(NC(=O)/C(=C/c1ccc(O)cc1)NC(=O)c1ccccc1)c1ccnc2cc(Cl)ccc12 | 21.9 µM (inactive) | 13.6 µM (inactive) | 23 µM (inactive) | 18.2 µM (inactive) | 6.35 µM (inactive) | 17.1 µM (inactive) | 2.79 µM (inactive) | 21 µM (inactive) | 14.8 µM (inactive) | 3.08 µM (inactive) | 18.2 µM (inactive) |  | 15.1 µM (inactive) |  | 19 µM (inactive) | 18.1 µM (inactive) | 17.8 µM (inactive) | 18.2 µM (inactive) | 20 µM (inactive) | 19.2 µM (inactive) |
| C=C1CC(c2ccc(OCCCN3C(=O)c4ccccc4C3=O)cc2)OC1=O (stereo unspecified) | 4.75 µM (inactive) | 1.42 µM (inactive) | 0.123 µM (active) | 3.9 µM (inactive) | 1.52 µM (inactive) | 1.97 µM (inactive) | 1.96 µM (inactive) | 0.653 µM (active) | 4 µM (inactive) | 3.05 µM (inactive) | 1.8 µM (inactive) |  | 16.4 µM (inactive) | 2.36 µM | 14.4 µM (inactive) | 3.78 µM (inactive) | 2.19 µM (inactive) | 1.37 µM (inactive) | 2.54 µM (inactive) | 5.31 µM (inactive) |
| c1ccc2c(Cc3nnc4sc(SSc5nn6c(Cc7c[nH]c8ccccc78)nnc6s5)nn34)c[nH]c2c1 | 26.3 µM (inactive) | 15.1 µM (inactive) | 23.1 µM (inactive) | 23 µM (inactive) | 17.4 µM (inactive) | 16 µM (inactive) | 24.2 µM (inactive) | 17.9 µM (inactive) | 21.7 µM (inactive) | 18.1 µM (inactive) | 16 µM (inactive) |  | 16.2 µM (inactive) | 21.3 µM | 39.9 µM (inactive) | 16.7 µM (inactive) | 33 µM (inactive) | 11.3 µM (inactive) | 31.3 µM (inactive) | 23.8 µM (inactive) |
| CN1C(=O)C(=CNc2ccc(Cl)cc2Cl)C(=O)N(C)C1=O |  | > 100 µM (inactive) | > 100 µM (inactive) | > 100 µM (inactive) | > 100 µM (inactive) | > 100 µM (inactive) |  | > 100 µM (inactive) | > 100 µM (inactive) | > 100 µM (inactive) | > 100 µM (inactive) | > 100 µM (inactive) | > 100 µM (inactive) | > 100 µM | > 100 µM (inactive) | > 100 µM (inactive) | > 100 µM (inactive) | > 100 µM (inactive) | > 100 µM (inactive) | > 100 µM (inactive) |
| COc1cc(/C=C2\CCC(C)c3c2nc(N)c(C#N)c3-c2cc(OC)c(OC)c(OC)c2)cc(OC)c1OC (stereo unspecified) | 55.2 µM (inactive) | 29.9 µM (inactive) |  | 34.5 µM (inactive) | 28.6 µM (inactive) | > 100 µM (inactive) | 49.1 µM (inactive) |  | 46 µM (inactive) | 25.8 µM (inactive) | > 100 µM (inactive) |  | > 100 µM (inactive) | 27.1 µM | > 100 µM (inactive) |  | > 100 µM (inactive) | > 100 µM (inactive) |  | 18.7 µM (inactive) |
| CCO/C=N\C1=C(C#N)SC2=N/C(=C\c3ccco3)C(=O)N21 | > 100 µM (inactive) | > 100 µM (inactive) | > 100 µM (inactive) | > 100 µM (inactive) | > 100 µM (inactive) |  | > 100 µM (inactive) | > 100 µM (inactive) | > 100 µM (inactive) | > 100 µM (inactive) | > 100 µM (inactive) |  | > 100 µM (inactive) | > 100 µM | > 100 µM (inactive) | > 100 µM (inactive) | > 100 µM (inactive) | > 100 µM (inactive) | > 100 µM (inactive) | > 100 µM (inactive) |
| C[C@H](C/C=C/C(C)(C)O)[C@H]1CC[C@@]2(C)[C@@H]3CC[C@H]4C(C)(C)[C@@H](O)CC[C@@]45C[C@@]35CC[C@]12C | 15.4 µM (inactive) | 35.2 µM (inactive) | 16.8 µM (inactive) | 14.1 µM (inactive) | 6.31 µM (inactive) | 26.1 µM (inactive) |  | 2.37 µM (inactive) | 17.4 µM (inactive) |  | 18.2 µM (inactive) | 34.1 µM (inactive) | 13.6 µM (inactive) | 17.1 µM | 32.1 µM (inactive) |  | 17.9 µM (inactive) | 21 µM (inactive) |  | 11.2 µM (inactive) |
| COc1ccc2c(c1)OCC1Cc3ccccc3OC21 (stereo unspecified) | > 100 µM (inactive) | > 100 µM (inactive) | > 100 µM (inactive) | 49.9 µM (inactive) | > 100 µM (inactive) | > 100 µM (inactive) | > 100 µM (inactive) | > 100 µM (inactive) | > 10 µM (inactive) | > 100 µM (inactive) | > 100 µM (inactive) | > 100 µM (inactive) | > 100 µM (inactive) | > 100 µM | > 100 µM (inactive) | > 100 µM (inactive) | 52 µM (inactive) | > 10 µM (inactive) | > 100 µM (inactive) |  |
| CC1(C)CC(=O)C2=C(C1)N(c1ccccc1)C1(O)C=CC(O)=C3C(=O)c4ccccc4C(=O)C321 (stereo unspecified) | 74 µM (inactive) | 27.7 µM (inactive) | 27.4 µM (inactive) | 55.6 µM (inactive) | 14 µM (inactive) | 19.2 µM (inactive) | 37.2 µM (inactive) | 20.3 µM (inactive) | 32.9 µM (inactive) | 8.57 µM (inactive) | 61.4 µM (inactive) | 26.9 µM (inactive) | 34.4 µM (inactive) | 30.8 µM | 88.9 µM (inactive) | 30.2 µM (inactive) | 33.8 µM (inactive) |  | 26.7 µM (inactive) |  |
| CCOC(=O)c1[nH]c2nc(SC)nc(Nc3ccccc3Cl)c2c1N | 23.2 µM (inactive) |  |  |  | 13.9 µM (inactive) | 16.6 µM (inactive) |  | 16.8 µM (inactive) | 13.9 µM (inactive) |  | 15.6 µM (inactive) | 20 µM (inactive) | 18.3 µM (inactive) | 35.3 µM | 21.4 µM (inactive) | 27.4 µM (inactive) | 33.6 µM (inactive) | 12.6 µM (inactive) | 24.3 µM (inactive) | 20.1 µM (inactive) |
